Measured values as given in patent US9266922B2, “Antigen peptide and uses thereof” (priority 2011, dated 2016).
Where two headings read alike, the source gives them in different places. Residues, ends and D or L forms follow the SMILES beside them.

Columns and labels:
HLA-A*0201 [1] = biological target: T1, HLA-A*0201 (Homo sapiens, UniProt P04439, D140Y/D185E/D98H/E176V/E277Q/G131W/G231S/I119V/I121R/I166T/I218V/L300P/L318F/N151K/N90K/P208A/P217A/Q86G/Q94H/R138H/R169H/T345S); test: iScore calculation (iTOPIA system software); conditions: multiparametric score of binding, off-rate and affinity
[2] = biological target: T2, HLA A*0201 on CEM.T2 cell line (Homo sapiens, UniProt P04439, D140Y/D185E/D98H/E176V/E277Q/G131W/G231S/I119V/I121R/I166T/I218V/L300P/L318F/N151K/N90K/P208A/P217A/Q86G/Q94H/R138H/R169H/T345S); test: Cellular binding assay, HLA stabilization on CEM.T2 cells; format: cell-based; conditions: for CEM.T2 % Binding: 100 μM peptide, 37° C. for 4 h, FACS anti HLA-A2, relative to HBV positive control peptide
T2 construct: This cell line expresses HLA A*0201 but is deficient for TAP transporter; endogenous in cells; host or cells: CEM.T2 (T2) cell line
Description: The CEM.T2 cell line (T2) is defective in the processing of proteins for presentation by MHC class 1 molecules. This cell line expresses HLA A*0201 but is deficient for TAP transporter. T2 is classically used to assess the Peptide/HLA-A*0201 Complex Stability[H. W. Nijman et al., 1993]
For HLA-A2*0201 stabilization, T2 cells (2×10^5/well) were incubated in serum-free RPMI (Gibco®-France) with 100 μM of selected peptide, at 37° C. for 4 h. Cells were washed two times with PBS supplemented with 1% BSA and stained with fluorescein isothiocyanate-conjugated anti HLA-A2 (Clone BB7.2) (BD Bioscience Pharmingen-France-) at 4° C. for 45 min. After 3 washes, cells were fixed in PBS supplemented with 2% paraformaldehyde and analyzed by FACS (FACScan, BD Bioscience). The percentage of peptide binding was calculated as follows: % Binding={(MFI peptide sample−MFI Neg control)/(MFI Pos control−MFI Neg control)}×100
Negative control was done without peptide.

HLA-A*0201 [3] = biological target: T1, HLA-A*0201; test: biochemical; format: binding
[4] = biological target: T2, HLA A*0201 on CEM.T2 cell line; test: Cellular dissociation assay on CEM.T2 cells; format: cell-based; conditions: after Brefeldin A 1 h and 3 h in serum-free RPMI at 37° C. (4 h)
Description: Cellular Dissociation Assay
After HLA-A2*0201 stabilization with peptides at 37° C. for 4 h, T2 cells were incubated for 1 h, in serum-free RPMI containing Brefeldin A (10 μg/ml), an inhibitor of the transport of secretory and lysosomal proteins [G. J. Strous et al., 1993]. After 3 washes, T2 cells were incubated for 3 h in serum-free RPMI at 37° C. Binding was then measured by FACS and after 4 h incubation. Percentage of Residual Binding (% RB) was calculated as follows: […]

HLA-A*0201 [5] = biological target: T1, HLA-A*0201; test: iTOPIA EDS MHC peptide binding assay; conditions: HLA-A*0201 monomer, relative to positive control peptide, 21° C. for 18 h
From the text: MHC peptide binding assay using iTOPIA EDS
Microtiter 96 well plates containing HLA class I MHC monomer loaded with the human β2-microglobulin and a “placeholder” peptide were used to evaluate peptide binding, affinity, and off-rate.
The 502 nectin4 nonapeptides were first evaluated for their ability to bind to each MHC molecule in the peptide binding assay. In this assay, the placeholder peptides were stripped from the MHC class I monomer complexes coated on plastic, which leaves the MHC class I heavy chain available as a binding partner for candidate peptides in the presence of human β2-microglobulin.
Peptide binding was performed at 21° C. for 18 h. Revelation was done using an anti HLA-ABC-FITC mAb that binds to refolded MHC complex conformation. The relative fluorescent intensity was read using a fluorimeter (Molecular Devices, SpectraMax Gemini, Sunnyvale, Calif., USA).
Peptides with a binding>30% of the positive control peptide were selected as “binder” and subsequently analyzed for affinity (ED50) and off-rate (T1/2).

[6] = peptide concentration giving 50% of optimal binding, 10^−4 to 10^−9 M, 21° C. for 18 h, read-out: Affinity (ED50)

HLA-A*0201 class I level on T2 cells ([2]; flow cytometry, FIG. 3A and 3B)	Molecule	iScore (HLA-A*0201 [1])	EC50 (HLA-A*0201 [3]; [6]) [nM]	CEM.T2 % Residual Binding [4] [%]	CEM.T2 % Binding [2] [%]	% Binding (HLA-A*0201 [5]) [%]	EC50 (HLA-A*0201 [3]; FIG. 2A, peptide concentration 10^−4 to 10^−9 M, read-out: estimated dose to reach 50% maximal binding (ED50)) [nM]
does not increase HLA level on T2 cells	122: nectin4 nonapeptide with a low iScore; the number represents where the peptide starts in the protein sequence (EGEYECRVS; UniProt Q96NY8 122-130, looked up, fragment) [Peptide 122]	low					
	CC(C)C[C@H](NC(=O)[C@H](CC(C)C)NC(=O)[C@H](CC(C)C)NC(=O)[C@@H](N)CC(C)C)C(=O)N[C@@H](C)C(=O)N[C@@H](CO)C(=O)N[C@@H](Cc1ccccc1)C(=O)N[C@H](C(=O)NCC(=O)O)[C@@H](C)O [Peptide 19] (H-LLLLASFTG-OH; N-terminus and C-terminus assumed)	0.659	60	0	17	75	
	CC(C)[C@H](NC(=O)[C@@H](NC(=O)[C@@H](NC(=O)[C@@H](NC(=O)[C@@H](NC(=O)[C@H](CC(=O)O)NC(=O)[C@H](CO)NC(=O)[C@@H](NC(=O)CN)[C@@H](C)O)C(C)C)C(C)C)[C@@H](C)O)C(C)C)C(=O)O [Peptide 35] (H-GTSDVVTVV-OH; N-terminus and C-terminus assumed)	0.539	300	0	60	63	
	CC(C)C[C@H](NC(=O)CNC(=O)[C@H](Cc1ccc(O)cc1)NC(=O)[C@H](CCCCN)NC(=O)[C@H](CO)NC(=O)[C@H](Cc1c[nH]cn1)NC(=O)[C@H](CC(C)C)NC(=O)[C@H](CC(C)C)NC(=O)[C@H](C)N)C(=O)O [Peptide 80] (H-ALLHSKYGL-OH; N-terminus and C-terminus assumed)	0.815	1000			87	~100
	CC(C)C[C@H](NC(=O)[C@H](CCCNC(=N)N)NC(=O)[C@H](C)NC(=O)[C@H](CCC(N)=O)NC(=O)[C@@H](N)Cc1ccccc1)C(=O)N[C@@H](CCCNC(=N)N)C(=O)N[C@@H](CC(C)C)C(=O)N[C@@H](CCCNC(=N)N)C(=O)N[C@H](C(=O)O)C(C)C [Peptide 137] (H-FQARLRLRV-OH; N-terminus and C-terminus assumed)	0.66		72	30	69	
	CC(C)C[C@H](NC(=O)[C@H](Cc1c[nH]cn1)NC(=O)[C@H](Cc1ccccc1)NC(=O)[C@H](CCC(=O)O)NC(=O)[C@H](CO)NC(=O)[C@@H](NC(=O)[C@@H](NC(=O)[C@H](C)N)C(C)C)[C@@H](C)O)C(=O)N[C@H](C(=O)O)C(C)C [Peptide 203] (H-AVTSEFHLV-OH; N-terminus and C-terminus assumed)	0.533	400	0	48	64	
	CSCC[C@H](NC(=O)[C@@H](N)CO)C(=O)N[C@@H](CC(N)=O)C(=O)NCC(=O)N[C@@H](CCC(N)=O)C(=O)N1CCC[C@H]1C(=O)N[C@@H](CC(C)C)C(=O)N[C@H](C(=O)N[C@@H](CS)C(=O)O)[C@@H](C)O [Peptide 215] (H-SMNGQPLTC-OH; N-terminus and C-terminus assumed)	0.689	700	0	21	81	
	CC[C@H](C)[C@H](NC(=O)[C@@H](N)Cc1c[nH]cn1)C(=O)N[C@@H](CC(C)C)C(=O)N[C@@H](Cc1c[nH]cn1)C(=O)N[C@H](C(=O)N[C@@H](CO)C(=O)N[C@@H](Cc1ccccc1)C(=O)N[C@@H](CC(C)C)C(=O)N[C@@H](C)C(=O)O)C(C)C [Peptide 238] (H-HILHVSFLA-OH; N-terminus and C-terminus assumed)	1.426	60	66	37	87	
	CC[C@H](C)[C@H](N)C(=O)N[C@@H](CC(C)C)C(=O)N[C@@H](Cc1c[nH]cn1)C(=O)N[C@H](C(=O)N[C@@H](CO)C(=O)N[C@@H](Cc1ccccc1)C(=O)N[C@@H](CC(C)C)C(=O)N[C@@H](C)C(=O)N[C@@H](CCC(=O)O)C(=O)O)C(C)C [Peptide 239] (H-ILHVSFLAE-OH; N-terminus and C-terminus assumed)	0.51	200	0	10	61	
	CC(C)C[C@H](NC(=O)[C@@H](N)Cc1ccccc1)C(=O)N[C@@H](C)C(=O)N[C@@H](CCC(=O)O)C(=O)N[C@@H](C)C(=O)N[C@@H](CO)C(=O)N[C@H](C(=O)N[C@@H](CCCNC(=N)N)C(=O)NCC(=O)O)C(C)C [Peptide 244] (H-FLAEASVRG-OH; N-terminus and C-terminus assumed)	0.533	700	0	12	78	
	CC[C@H](C)[C@H](NC(=O)[C@H](Cc1c[nH]cn1)NC(=O)[C@H](Cc1c[nH]c2ccccc12)NC(=O)[C@H](CC(C)C)NC(=O)[C@H](CC(N)=O)NC(=O)[C@H](CCC(N)=O)NC(=O)[C@@H](N)CC(=O)O)C(=O)NCC(=O)N[C@@H](CCCNC(=N)N)C(=O)O [Peptide 255]	0.539	500	0	6	62	
	CSCC[C@H](NC(=O)[C@H](C)N)C(=O)N[C@@H](CC(C)C)C(=O)N[C@@H](CCCCN)C(=O)N[C@@H](CS)C(=O)N[C@@H](CC(C)C)C(=O)N[C@@H](CO)C(=O)N[C@@H](CCC(=O)O)C(=O)NCC(=O)O [Peptide 266] (H-AMLKCLSEG-OH; N-terminus and C-terminus assumed)	0.667	700	39	31	74	
	CC[C@H](C)[C@H](NC(=O)[C@@H](NC(=O)CNC(=O)[C@@H](NC(=O)[C@@H](NC(=O)[C@@H](N)C(C)C)C(C)C)C(C)C)C(C)C)C(=O)N[C@@H](C)C(=O)N[C@@H](C)C(=O)N[C@@H](CC(C)C)C(=O)O [Peptide 351, VVVGVIAAL] (H-VVVGVIAAL-OH; N-terminus and C-terminus assumed)	0.784	30			58	
